Experimental data published in ChEMBL document CHEMBL4020815 (J Med Chem, 2017).
In brackets after ≈: the same amount, converted by molar mass.

What was measured:
Mus musculus [1] = assay: Toxicity in athymic nude mouse xenografted with human MDA-MB-231met2 cells assessed as mortality at 30 to 60 mg/kg, bid administered via oral gavage for 22 days; assay type: organism-based; details: in vivo, 528 h
Mus musculus [2] = assay: Unbound volume of distribution at steady state in CD-1 mouse at 1 mg/kg, iv by LC-MS/MS method; assay type: ADME, organism-based; details: in vivo
Mus musculus [3] = assay: Unbound AUC in CD-1 mouse at 10 mg/kg, po by LC-MS/MS method; assay type: ADME, organism-based; details: in vivo
Mus musculus [4] = assay: Unbound Cmax in CD-1 mouse at 10 mg/kg, po by LC-MS/MS method; assay type: ADME, organism-based; details: in vivo
[5] = Plasma concentration in CD-1 mouse at 10 mg/kg, po after 1 hr by LC-MS/MS method; assay type: ADME, organism-based
CYP3A4 = CYP3A4 (Homo sapiens, UniProt P08684); assay: Inhibition of human CYP3A4 at 10 uM relative to control; assay type: ADME
[6] = Fraction unbound in CD-1 mouse plasma; assay type: ADME, cell-free
Mus musculus [7] = assay: In vivo inhibition of AICARFT in tumor of low folate diet fed nude mouse xenografted with human NCI-H460 cells assessed as increase in intratumoral ZMP levels at 0.3 to 30 mg/kg after 4 hrs relative to vehicle-treated control; assay type: functional
[8] = Oral bioavailability in CD-1 mouse at 10 mg/kg by LC-MS/MS method; assay type: ADME, organism-based; details: in vivo
[9] = Antitumor activity against human MDA-MB-231met2 cells xenografted in athymic nude mouse assessed as tumor volume at 60 mg/kg, bid administered via oral gavage for 22 days relative to control; assay type: functional
Mus musculus [10] = assay: In vivo inhibition of AICARFT in tumor of athymic nude mouse xenografted with human MDA-MB-231met2 cells assessed as increase in ZMP levels at 30 mg/kg, bid administered via oral gavage for 22 days relative to control; assay type: functional
CYP2D6 = CYP2D6 (Homo sapiens, UniProt P10635); assay: Inhibition of human CYP2D6 at 10 uM relative to control; assay type: ADME
Mus musculus [11] = assay: In vivo inhibition of AICARFT in tumor of athymic nude mouse xenografted with human MDA-MB-231met2 cells assessed as increase in AICAr levels at 60 mg/kg, bid administered via oral gavage for 22 days relative to control; assay type: functional
Mus musculus [12] = assay: In vivo inhibition of AICARFT in tumor of low folate diet fed nude mouse xenografted with human NCI-H460 cells assessed as increase in circulating AICAr levels at 0.3 to 30 mg/kg after 4 hrs relative to vehicle-treated control; assay type: functional
NCI-H460 [13] = assay: Cytotoxicity against human NCI-H460 cells assessed as growth inhibition using regular folate media after 7 days by Alamar blue assay; assay type: functional; details: NCI-H460, 168 h
MDA-MB-231 = assay: Cytotoxicity against human MDA-MB-231 cells assessed as growth inhibition using regular folate media after 7 days by Alamar blue assay; assay type: functional; details: MDA-MB-231, 168 h
[14] = Antitumor activity against human MDA-MB-231met2 cells xenografted in athymic nude mouse assessed as tumor volume at 30 mg/kg, bid administered via oral gavage for 22 days relative to control; assay type: functional
Mus musculus [15] = assay: Toxicity in athymic nude mouse xenografted with human MDA-MB-231met2 cells assessed as body weight loss at 30 to 60 mg/kg, bid administered via oral gavage for 22 days; assay type: organism-based; details: in vivo, 528 h
[16] = biological target: T1, Bifunctional methylenetetrahydrofolate dehydrogenase/cyclohydrolase, mitochondrial (Homo sapiens, UniProt P13995); assay: Inhibition of MTHFD2 (unknown origin) using NAD/5,10-methylene THF as substrate after 30 mins by HPLC method
T1 sequence (P13995 whole entry): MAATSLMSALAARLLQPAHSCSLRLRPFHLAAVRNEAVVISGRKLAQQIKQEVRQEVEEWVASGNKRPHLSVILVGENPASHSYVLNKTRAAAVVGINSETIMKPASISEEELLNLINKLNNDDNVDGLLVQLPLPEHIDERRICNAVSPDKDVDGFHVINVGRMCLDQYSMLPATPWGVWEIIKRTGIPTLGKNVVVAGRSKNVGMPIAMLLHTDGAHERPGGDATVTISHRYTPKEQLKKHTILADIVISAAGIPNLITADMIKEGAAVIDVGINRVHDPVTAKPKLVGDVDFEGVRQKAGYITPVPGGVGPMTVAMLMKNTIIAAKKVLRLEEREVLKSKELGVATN

MDA-MB-231met2 = assay: Antitumor activity against human MDA-MB-231met2 cells xenografted in athymic nude mouse assessed as tumor growth inhibition administered as bid via oral gavage for 22 days; assay type: functional, cell-based
[17] = Permeability across apical to basolateral side in MDCK cells at 20 uM; assay type: ADME, cell-based, Canis lupus familiaris; details: dog
Mus musculus [18] = assay: Unbound clearance in CD-1 mouse at 1 mg/kg, iv by LC-MS/MS method; assay type: ADME, organism-based; details: in vivo
[19] = Equilibrium aqueous solubility of the compound at pH 7.5 after 20 hrs by HPLC method; assay type: physicochemical
NCI-H460 [20] = assay: Cytotoxicity against human NCI-H460 cells assessed as growth inhibition using low folate media after 7 days by Alamar blue assay; assay type: functional; details: NCI-H460, 168 h
[21] = biological target: T2, Serine hydroxymethyltransferase, cytosolic (Homo sapiens, UniProt P34896); assay: Inhibition of SHMT1 (unknown origin) using serine/THF as substrate after 50 mins by HPLC method
T2 sequence (P34896 whole entry): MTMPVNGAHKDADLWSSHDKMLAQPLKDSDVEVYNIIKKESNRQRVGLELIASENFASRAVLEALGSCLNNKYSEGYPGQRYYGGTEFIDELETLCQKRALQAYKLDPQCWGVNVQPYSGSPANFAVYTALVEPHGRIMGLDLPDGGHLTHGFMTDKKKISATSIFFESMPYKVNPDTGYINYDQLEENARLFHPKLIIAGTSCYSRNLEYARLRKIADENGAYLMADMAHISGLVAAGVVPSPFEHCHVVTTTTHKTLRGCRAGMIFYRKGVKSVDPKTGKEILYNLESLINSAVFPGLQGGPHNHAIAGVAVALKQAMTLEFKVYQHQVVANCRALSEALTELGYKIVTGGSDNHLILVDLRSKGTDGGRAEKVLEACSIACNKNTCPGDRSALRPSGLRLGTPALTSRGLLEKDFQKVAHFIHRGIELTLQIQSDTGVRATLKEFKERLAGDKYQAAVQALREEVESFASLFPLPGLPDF

[22] = Drug metabolism in microsomes (unknown origin); assay type: ADME, Microsome; details: read-out: Drug metabolism
CYP2C9 = CYP2C9 (Homo sapiens, UniProt P11712); assay: Inhibition of human CYP2C9 at 10 uM relative to control; assay type: ADME
Chain of CYP2C9 (P11712 whole entry): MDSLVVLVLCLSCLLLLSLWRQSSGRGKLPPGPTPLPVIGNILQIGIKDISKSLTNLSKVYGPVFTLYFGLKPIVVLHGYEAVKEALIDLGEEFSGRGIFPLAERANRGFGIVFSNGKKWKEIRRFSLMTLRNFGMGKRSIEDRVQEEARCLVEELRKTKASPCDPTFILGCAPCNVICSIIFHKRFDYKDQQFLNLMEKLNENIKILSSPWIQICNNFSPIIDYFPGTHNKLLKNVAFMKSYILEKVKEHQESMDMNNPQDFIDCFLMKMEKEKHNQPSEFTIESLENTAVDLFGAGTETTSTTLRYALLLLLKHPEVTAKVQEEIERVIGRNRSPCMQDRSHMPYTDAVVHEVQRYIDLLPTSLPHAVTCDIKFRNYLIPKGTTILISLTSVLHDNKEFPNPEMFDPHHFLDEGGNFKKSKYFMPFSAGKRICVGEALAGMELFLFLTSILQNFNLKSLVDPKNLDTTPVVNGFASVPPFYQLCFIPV

Chain of CYP2D6 (P10635 whole entry): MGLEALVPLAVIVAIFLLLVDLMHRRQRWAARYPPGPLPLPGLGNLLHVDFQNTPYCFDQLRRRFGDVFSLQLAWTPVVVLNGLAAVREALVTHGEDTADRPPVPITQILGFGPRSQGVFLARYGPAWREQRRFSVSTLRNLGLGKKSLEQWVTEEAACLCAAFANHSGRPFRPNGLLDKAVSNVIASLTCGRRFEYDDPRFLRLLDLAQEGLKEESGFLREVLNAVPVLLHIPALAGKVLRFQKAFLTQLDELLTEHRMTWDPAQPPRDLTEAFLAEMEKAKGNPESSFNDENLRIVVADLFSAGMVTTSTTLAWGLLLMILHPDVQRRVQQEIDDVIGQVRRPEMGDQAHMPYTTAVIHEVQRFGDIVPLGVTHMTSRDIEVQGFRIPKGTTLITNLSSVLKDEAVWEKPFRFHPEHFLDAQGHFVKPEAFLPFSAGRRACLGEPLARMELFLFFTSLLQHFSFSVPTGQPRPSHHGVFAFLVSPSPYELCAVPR
Chain of CYP3A4 (P08684 whole entry): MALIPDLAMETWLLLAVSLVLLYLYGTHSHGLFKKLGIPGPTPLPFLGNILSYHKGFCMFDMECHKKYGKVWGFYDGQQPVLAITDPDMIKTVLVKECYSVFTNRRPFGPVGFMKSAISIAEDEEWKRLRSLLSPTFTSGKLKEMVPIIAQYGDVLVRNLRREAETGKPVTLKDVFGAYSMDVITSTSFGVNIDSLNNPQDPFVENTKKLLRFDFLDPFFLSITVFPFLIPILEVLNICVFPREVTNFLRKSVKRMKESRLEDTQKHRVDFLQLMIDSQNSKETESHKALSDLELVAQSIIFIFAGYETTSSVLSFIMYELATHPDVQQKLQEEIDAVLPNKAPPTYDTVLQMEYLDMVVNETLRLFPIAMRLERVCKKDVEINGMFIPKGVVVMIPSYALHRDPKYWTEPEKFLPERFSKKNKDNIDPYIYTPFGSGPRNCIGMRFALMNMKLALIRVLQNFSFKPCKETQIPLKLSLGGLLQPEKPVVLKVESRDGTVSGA

In the case of O=c1[nH]ccc2cc(F)c(NS(=O)(=O)c3ccc(N4CC[C@@H](O)C4)s3)cc12, the Activity (Mus musculus [1]) is reported as “Non-Toxic”, the Vduss (Mus musculus [2]) is reported as 12 L/kg and the fAUC (Mus musculus [3]) is reported as 1279 nM·h. For the same compound, the fCmax (Mus musculus [4]) was 289 nM, the concentration at 1 h [5] was 8.5 µM and the inhibition at 10 µM (CYP3A4) was < 10%. For the same compound, the fraction unbound [6] was 0.06, the “fold change (FC)” value (Mus musculus [7]) was >100 and the bioavailability [8] was 25%. The Activity [9] was -1%, the “fold change (FC)” value (Mus musculus [10]) was 10 and the inhibition at 10 µM (CYP2D6) was < 10%. The “fold change (FC)” value (Mus musculus [11]) was 3, the “fold change (FC)” value (Mus musculus [12]) was 80 and the GI50 (NCI-H460 [13]) was 6.58 µM. The GI50 (MDA-MB-231) was 44 nM, the Activity [14] was 16% and the Activity (Mus musculus [15]) was “Non-Toxic”. For the same compound, the IC50 [16] was > 100 µM, the TGI (MDA-MB-231met2) was “Dose-dependent effect” and the permeability [17] was 0.2%. It also gave a CL free (Mus musculus [18]) of 78 mL/min/kg, a solubility thermodynamic at 20 h [19] of 20 µg/mL (≈ 48.8 µM) and a GI50 (NCI-H460 [20]) of 25 nM. The IC50 [21] was > 100 µM, the metabolised [22] was < 10% and the inhibition at 10 µM (CYP2C9) was < 10%.
